We go through 18 compounds from PubChem BioAssay AID248 (DTP/NCI, 2004).

Values joined by “and” are separate entries in the source; they are usually repeats but may differ in a detail not shown here. Equal entries are not always repeated. Inconclusive results and toxic doses are left out.

The assay concerns L1210 leukemia ip in BDF1 mice, survival T/C. The assay can be described thus: NCI In Vivo Anticancer Drug Screen. Data for tumor model L1210 Leukemia (intraperitoneal) in B6D2F1 (BDF1) mice. Conditions: endpoint: mean survival time, higher = longer survival. The gist of the method: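 Tumor was transplanted into mice, which were then dosed with test compound or vehicle alone. Survival was recorded for each group, and the treated figure was expressed relative to the control figure.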

[1] abbreviates: dose: 100.0 mg/kg/injection, schedule: Q01DX001 (ip), vehicle: carboxymethylcellulose (CMC).
[2] abbreviates: dose: 100.0 mg/kg/injection, schedule: Q01DX009 (ip), vehicle: saline.
Setting [3] is: dose: 100.0 mg/kg/injection, schedule: Q04DX003 (ip), vehicle: saline.
The mark [4] stands for this setting: dose: 200.0 mg/kg/injection, schedule: Q01DX009 (ip), vehicle: saline.
Where [5] appears, read: dose: 200.0 mg/kg/injection, schedule: Q04DX003 (ip), vehicle: saline.
[6] abbreviates: dose: 400.0 mg/kg/injection, schedule: Q01DX009 (ip), vehicle: saline.
[7] abbreviates: dose: 400.0 mg/kg/injection, schedule: Q04DX003 (ip), vehicle: saline.
Setting [8] is: dose: 100.0 mg/kg/injection, schedule: Q04DX003 (ip), vehicle: saline with Tween-80.
Where [9] appears, read: dose: 200.0 mg/kg/injection, schedule: Q04DX003 (ip), vehicle: saline with Tween-80.
[10] abbreviates: dose: 400.0 mg/kg/injection, schedule: Q04DX003 (ip), vehicle: saline with Tween-80.

Consider `CCOC(=O)C(C(=O)OCC)c1c[n+]([O-])c2ccccc2c1[N+](=O)[O-]`, for which the T/C was 93 % of control under setting [1]; 98 % of control (dose: 200.0 mg/kg/injection, schedule: Q01DX001 (ip), vehicle: carboxymethylcellulose (CMC)); 98 % of control (dose: 400.0 mg/kg/injection, schedule: Q01DX001 (ip), vehicle: carboxymethylcellulose (CMC)).
Regarding `C/C(=C\Cl)CN1C(=O)c2ccccc2C1=O`, the T/C is 93 % of control under setting [2]; 97 % of control under setting [3]; 113 % of control under setting [4]; 101 % of control under setting [5]; 102 % of control under setting [6]; 105 % of control under setting [7].
`O=C(NC1CCCCC1)O/N=C/c1ccccn1`: the T/C was 94 % of control (dose: 100.0 mg/kg/injection, schedule: Q04DX003 (ip), vehicle: other); 109 % of control (dose: 200.0 mg/kg/injection, schedule: Q04DX003 (ip), vehicle: other); 94 % of control (dose: 400.0 mg/kg/injection, schedule: Q04DX003 (ip), vehicle: other).
Turning to `N=c1ccc2nc3ccc(N)cc3sc-2c1`, the T/C is 104 % of control (dose: 6.25 mg/kg/injection, schedule: Q01DX009 (ip), vehicle: saline); 100 % of control (dose: 6.25 mg/kg/injection, schedule: Q04DX003 (ip), vehicle: saline); 106 % of control (dose: 12.5 mg/kg/injection, schedule: Q01DX009 (ip), vehicle: saline); 96 % of control (dose: 12.5 mg/kg/injection, schedule: Q04DX003 (ip), vehicle: saline); 112 % of control (dose: 25.0 mg/kg/injection, schedule: Q01DX009 (ip), vehicle: saline); 107 % of control (dose: 25.0 mg/kg/injection, schedule: Q04DX003 (ip), vehicle: saline). The T/C reads like this: (dose: 50.0 mg/kg/injection, schedule: Q01DX009 (ip), vehicle: saline) 98 % of control; (dose: 50.0 mg/kg/injection, schedule: Q04DX003 (ip), vehicle: saline) 105 % of control; under setting [3], 105 % of control.
Consider `NC(=O)c1ccc(N)nc1`, for which the T/C by setting is: (dose: 22.0 mg/kg/injection, schedule: Q01DX001 (ip), vehicle: carboxymethylcellulose (CMC)) 104 % of control and 106 % of control; (dose: 25.0 mg/kg/injection, schedule: Q01DX001 (ip), vehicle: carboxymethylcellulose (CMC)) 106 % of control; (dose: 33.0 mg/kg/injection, schedule: Q01DX001 (ip), vehicle: carboxymethylcellulose (CMC)) 109 % of control and 114 % of control; (dose: 50.0 mg/kg/injection, schedule: Q01DX001 (ip), vehicle: carboxymethylcellulose (CMC)) 111 % of control and 112 % of control; (dose: 75.0 mg/kg/injection, schedule: Q01DX001 (ip), vehicle: carboxymethylcellulose (CMC)) 109 % of control and 90 % of control; under setting [1], 95 % of control.
Take `CCCCCCCCP(=S)(CCCCCC)CCCCCC`: the T/C is 104 % of control (dose: 100.0 mg/kg/injection, schedule: Q01DX001 (ip), vehicle: saline with Tween-80); 90 % of control (dose: 200.0 mg/kg/injection, schedule: Q01DX001 (ip), vehicle: saline with Tween-80); 87 % of control (dose: 400.0 mg/kg/injection, schedule: Q01DX001 (ip), vehicle: saline with Tween-80).
With `NC(N)=NCCCS(=O)(=O)Nc1ccc(Nc2c3ccccc3nc3cc([N+](=O)[O-])ccc23)cc1`, the T/C is 186 % of control (dose: 3.0 mg/kg/injection, schedule: Q01DX009 (ip), vehicle: water); 160 % of control (dose: 6.0 mg/kg/injection, schedule: Q01DX009 (ip), vehicle: water); 102 % of control (dose: 6.25 mg/kg/injection, schedule: Q04DX002 (ip), vehicle: saline with Tween-80); 186 % of control (dose: 6.25 mg/kg/injection, schedule: Q04DX003 (ip), vehicle: water); 120 % of control (dose: 12.5 mg/kg/injection, schedule: Q04DX002 (ip), vehicle: saline with Tween-80); 124 % of control (dose: 25.0 mg/kg/injection, schedule: Q04DX002 (ip), vehicle: saline with Tween-80). The T/C runs as follows: (dose: 50.0 mg/kg/injection, schedule: Q04DX003 (ip), vehicle: water) 161 % of control; (dose: 100.0 mg/kg/injection, schedule: Q04DX002 (ip), vehicle: saline with Tween-80) 150 % of control; (dose: 200.0 mg/kg/injection, schedule: Q04DX002 (ip), vehicle: saline with Tween-80) 183 % of control.
With `Cc1cc2c(cc1C)/C(=N\O)CCCC2`, the T/C is, setting by setting: under setting [8], 110 % of control; under setting [9], 92 % of control; under setting [10], 94 % of control.
On to `CCCCNC=O`, for which the T/C under setting [2] was 101 % of control; the T/C under setting [3] is 102 % of control; the T/C under setting [4] is 106 % of control; the T/C under setting [5] is 93 % of control; the T/C under setting [6] was 108 % of control; the T/C under setting [7] is 111 % of control.
`O=c1ccnc(SCc2ccc(Cl)cc2)[nH]1`: the T/C (dose: 110.0 mg/kg/injection, schedule: Q01DX Z (ip), vehicle: methylcellulose (MC)) was 87 % of control.
With `CCCCCC(CN(C)C)C(/C=C/c1ccccc1Cl)OC(=O)c1ccc([N+](=O)[O-])cc1` (stereo not drawn), the T/C reads like this: under setting [8], 95 % of control; under setting [9], 92 % of control; under setting [10], 92 % of control.
As to `O=C(O)CCCCCN1C(=O)CCC1=O`, the T/C is, setting by setting: (dose: 75.0 mg/kg/injection, schedule: Q04DX003 (ip), vehicle: saline) 95 % of control; (dose: 150.0 mg/kg/injection, schedule: Q04DX003 (ip), vehicle: saline) 103 % of control; (dose: 300.0 mg/kg/injection, schedule: Q04DX003 (ip), vehicle: saline) 92 % of control.
Take `CCCCCCCCCCCCCCCCCCNC(=O)N(C)Cc1ccccc1`: the T/C was 99 % of control (dose: 100.0 mg/kg/injection, schedule: Q04DX002 (ip), vehicle: Klucel (hydroxypropylcellulose) (HPC)); 96 % of control (dose: 200.0 mg/kg/injection, schedule: Q04DX002 (ip), vehicle: Klucel (hydroxypropylcellulose) (HPC)); 96 % of control (dose: 400.0 mg/kg/injection, schedule: Q04DX002 (ip), vehicle: Klucel (hydroxypropylcellulose) (HPC)).
For the compound `CC(C)(C)NCC1CCCC1=O` (stereo not drawn), the T/C (dose: 100.0 mg/kg/injection, schedule: Q04DX002 (ip), vehicle: gum acacia) is 101 % of control and the T/C (dose: 200.0 mg/kg/injection, schedule: Q04DX002 (ip), vehicle: gum acacia) is 105 % of control.
Consider `CCN(CC)CCOC(=O)C(S)(c1ccccc1)c1ccccc1`, for which, where the note is “dose: 75.0 mg/kg/injection, schedule: Q01DX001 (ip), vehicle: other”, the T/C is 100 % of control.
In the case of `CCCCCCCCN(CCCCCCCC)CC(O)c1ccc2cc(Br)c3ccccc3c2c1` (stereo not drawn), the T/C is, setting by setting: (dose: 100.0 mg/kg/injection, schedule: Q04DX003 (ip), vehicle: acetone) 113 % of control; (dose: 200.0 mg/kg/injection, schedule: Q04DX003 (ip), vehicle: acetone) 120 % of control; (dose: 400.0 mg/kg/injection, schedule: Q04DX003 (ip), vehicle: acetone) 103 % of control.
On to `CN1CNC(=O)NC1`, for which the T/C (dose: 100.0 mg/kg/injection, schedule: Q01DX009 (ip), vehicle: Klucel (hydroxypropylcellulose) (HPC)) is 113 % of control; the T/C (dose: 100.0 mg/kg/injection, schedule: Q04DX003 (ip), vehicle: Klucel (hydroxypropylcellulose) (HPC)) is 105 % of control; the T/C (dose: 200.0 mg/kg/injection, schedule: Q01DX009 (ip), vehicle: Klucel (hydroxypropylcellulose) (HPC)) is 105 % of control; the T/C (dose: 200.0 mg/kg/injection, schedule: Q04DX003 (ip), vehicle: Klucel (hydroxypropylcellulose) (HPC)) is 105 % of control; the T/C (dose: 400.0 mg/kg/injection, schedule: Q01DX009 (ip), vehicle: Klucel (hydroxypropylcellulose) (HPC)) was 103 % of control; the T/C (dose: 400.0 mg/kg/injection, schedule: Q04DX003 (ip), vehicle: Klucel (hydroxypropylcellulose) (HPC)) is 111 % of control.
For the compound `O=C(COc1ccccc1)NCc1ccccc1`, the T/C by setting is: under setting [3], 94 % of control; under setting [5], 92 % of control; under setting [7], 92 % of control.
